Data on six compounds can be found in patent publication US20100240748A1, “TETRAHYDRONAPHTHALEN-2-OL DERIVATIVES” (N. V. Organon, priority 2009, published 2010).

The target of data set [1] is human estrogen receptor β (hERβ) (Homo sapiens, UniProt Q92731). The data set can be described thus: ERβ transactivation bioassay in recombinant CHO cells (hERβ, rat oxytocin promoter, luciferase reporter). In kind it is cell-based. The following applies: for ERβ/ERα ratio: ERβ agonistic selectivity over ERα, transactivation data; for pEC50: transactivation of luciferase in CHO cells co-transfected with hERβ, read-out: ERβ agonistic EC50. As for the experimental part:
(§1) The estrogenic and antiestrogenic activity of compounds was determined in an in vitro bioassay with recombinant Chinese hamster ovary (CHO) cells stably co-transfected with the human estrogen receptor α (hERα) or β receptor (hERβ), the rat oxytocin promoter (RO) and the luciferase reporter gene (LUC). The estrogenic activity of a test compound to stimulate the transactivation of the enzyme luciferase mediated via the estrogen receptors hERα or hERβ is expressed in nM. The assay was performed as described by De Gooyer et al., Steroids 68 (2003), 21-30.
A general note: In a reporter assay the amount or activity of a reporter protein is the signal.

Data set [2] has as its system acinar epithelium of the ventral prostate. The data set can be described thus: short-term prostate apoptosis and proliferation model in castrated rats. It counts as in vivo, rat. As for the experimental part: Selected compounds were tested in a short-term prostate apoptosis and proliferation model in castrated rats.
Intact mature male Wistar rats (350-400 g) were castrated and left to recover for 1 week. 7 days after the castration rats received a single subcutaneous injection of testosterone buciclate (TB), a long-acting testosterone ester, in arachis oil (20 mg/kg) with a volume of 1 ml/kg and were subsequently treated once daily orally for 3 days with the test substance at doses between 0 and 1000 μg/kg, dissolved in gelatin/mannitol and dosed with a volume of 1 ml/kg.
At the end of the experiment rats were euthanized, the prostates were removed, weighed and processed for histology.
Apoptosis of the acinar epithelium of the ventral prostate was determined with TUNEL ([…]) staining. Apoptotic cells show nuclear DNA fragmentation and the TUNEL assay end-labels the fragmented DNA by incorporating biotinylated dUTP at the 3′-OH DNA ends using the enzyme Terminal deoxynucleotidyl Transferase (TdT). Positively stained cells are counted per acinus (glandular unit) in the ventral prostate. Proliferation of the acinar epithelium of the ventral prostate was determined by immunohistochemical staining with an antibody directed against Ki67 (clone Mib5). Positively stained cells are counted per acinus (glandular unit) in the ventral prostate. Statistical significance is determined as compared to TB alone by one-way ANOVA.

Data set [3] in a line: metabolic stability in human hepatocytes. It counts as in vitro ADME. The settings on record: human, cryopreserved human hepatocytes (suspension); tetrahydronaphthalen-2-ol; 37° C., sampled 0-120 min, LC-MS/MS; read-out: Human hepatocyte T 1/2. Here is the method: (§2) A number of compounds 9, 11 and 12 were tested on metabolic stability in human hepatocytes. The hepatic stability was compared to corresponding chroman compounds 25, 26 or 27 (see structures below).
(§3) Test compounds were diluted to 3 μM in incubation medium. Then 40 μl of the 3 μM test compounds was pipetted into a 96 well microtiter plate (flat bottom). Hepatocytes (stored at −140° C.) were thawed in a 37° C. water bath. The cells were resuspended into pre-warmed thawing medium and were centrifuged for 5 minutes at 50 g at room temperature. The supernatant was discarded and the remaining cell pellet was resuspended in warm incubation medium and diluted to 7.5 E5 cells/ml. Then 80 μl of the cell suspension was added to each well of the 96 well microtiter plate containing the test compounds. The resulting mixture was incubated at 37° C. and was sampled at t=0, 5, 30, 60, and 120 min. The samples were analyzed by LC-MS/MS to determine the content of unchanged test compound. Based on the rate of reduction of the content of test compound over time, the half-live (T½) was calculated.

For data set [4], the system named is human hepatocytes. The data set can be described thus: metabolic stability in human hepatocytes. It counts as in vitro ADME. The following applies: tetrahydronaphthalen-2-ol; 37° C., sampled 0-120 min, LC-MS/MS. Here is the method:
as §2, §3

Data set [5] deals with T1, human estrogen receptor α (hERα) (Homo sapiens, UniProt P03372).
T1 sequence (P03372 1-595): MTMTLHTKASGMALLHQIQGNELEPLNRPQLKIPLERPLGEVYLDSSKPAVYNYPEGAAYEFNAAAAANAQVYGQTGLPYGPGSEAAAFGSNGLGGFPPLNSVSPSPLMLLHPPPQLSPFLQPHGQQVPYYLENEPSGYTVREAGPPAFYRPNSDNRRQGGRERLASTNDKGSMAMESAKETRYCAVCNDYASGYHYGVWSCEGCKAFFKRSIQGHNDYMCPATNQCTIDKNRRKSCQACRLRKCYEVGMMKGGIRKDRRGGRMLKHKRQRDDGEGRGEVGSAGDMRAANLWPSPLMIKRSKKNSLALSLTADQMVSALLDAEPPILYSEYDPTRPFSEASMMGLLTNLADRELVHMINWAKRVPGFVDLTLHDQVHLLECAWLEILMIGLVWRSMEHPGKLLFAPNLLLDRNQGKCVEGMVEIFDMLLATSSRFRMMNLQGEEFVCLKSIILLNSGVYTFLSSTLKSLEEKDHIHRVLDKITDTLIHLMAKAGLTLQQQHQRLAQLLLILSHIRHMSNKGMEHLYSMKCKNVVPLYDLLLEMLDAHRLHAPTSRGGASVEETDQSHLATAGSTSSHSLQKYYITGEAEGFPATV
The data set can be described thus: ERα transactivation bioassay in recombinant CHO cells (hERα, rat oxytocin promoter, luciferase reporter). It counts as cell-based. The following applies: ratio of activities of eutomer and distomer on ERα. Here is the method: as §1

pEC50: −log10 of the molar value.

Sequence of human estrogen receptor β (hERβ) (Q92731 whole entry): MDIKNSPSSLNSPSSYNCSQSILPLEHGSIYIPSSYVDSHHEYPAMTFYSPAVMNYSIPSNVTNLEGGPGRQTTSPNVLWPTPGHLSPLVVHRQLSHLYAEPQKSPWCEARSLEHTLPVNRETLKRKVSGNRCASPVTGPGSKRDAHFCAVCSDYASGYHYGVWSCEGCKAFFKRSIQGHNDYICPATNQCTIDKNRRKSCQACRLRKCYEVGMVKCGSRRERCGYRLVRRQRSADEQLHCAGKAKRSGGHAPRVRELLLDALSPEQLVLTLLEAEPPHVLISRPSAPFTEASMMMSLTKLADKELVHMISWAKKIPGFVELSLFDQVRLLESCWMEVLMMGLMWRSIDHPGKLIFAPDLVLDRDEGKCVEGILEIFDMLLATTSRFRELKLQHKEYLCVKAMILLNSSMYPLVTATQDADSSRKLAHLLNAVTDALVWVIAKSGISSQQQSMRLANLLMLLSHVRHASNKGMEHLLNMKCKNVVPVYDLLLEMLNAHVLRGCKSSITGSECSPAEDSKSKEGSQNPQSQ

A word on the pEC50: it is −log10 of the EC50, conventionally taken in molar units. For the compound `CCC1C(c2ccc(O)c(F)c2)Cc2ccc(O)cc2C1Cc1ccccc1F` (racemic) [Compound 9q, 7-ethyl-6-(3-fluoro-4-hydroxyphenyl)-8-(2-fluorobenzyl)-5,6,7,8-tetrahydronaphthalen-2-ol], in data set [1], the ERβ/ERα ratio is listed as above 67 and the negative logarithm of the EC50 (pEC50) was 8.82.

On to `C[C@H]1[C@@H](c2ccc(O)cc2)Cc2ccc(O)cc2[C@H]1Cc1ccccc1F` (single isomer, unassigned) [Compound 11a], for which the epithelial cell proliferation entry in data set [2] (at 3 μg/kg, Ki67 staining, compared to TB-alone treated rats) is “decrease in epithelial cell proliferation”. Further, the “minimal active dose (MAD), increase in epithelial cell apoptosis” value in data set [2] (castrated Wistar rats with testosterone buciclate, once daily orally for 3 days, TUNEL staining, ventral prostate) was 3 µg/kg. For the same compound, in data set [2] (castrated rats, TUNEL staining, compared to TB alone, one-way ANOVA), the epithelial cell apoptosis entry is given as “statistically significant (p<0.01) increase in epithelial cell apoptosis”.

Regarding `C[C@H]1[C@@H](c2ccc(O)cc2)Cc2ccc(O)cc2[C@H]1Cc1c(F)cccc1F` (single isomer, unassigned) [Compound 11i], the half-life at 1 µM in data set [3] was determined as 29.4 min.

As to `C[C@@H]1[C@H](c2ccc(O)cc2)Cc2ccc(O)cc2[C@@H]1Cc1c(F)cccc1F` (single isomer, unassigned) [Compound 12i], the half-life at 1 µM in data set [3] was 33.7 min.

As to `CC[C@@H]1[C@H](c2ccc(O)c(F)c2)Cc2ccc(O)cc2[C@@H]1Cc1ccccc1F` (single isomer, unassigned) [Compound 12q], in data set [3], the half-life at 1 µM is above 120 min.

On to “(6S,7S,8S)-7-ethyl-6-(3- fluoro-4-hydroxyphenyl)- 8-(2-fluorobenzy1)-5,6, 7,8-tetrahydro- naphthalen-2-ol [Compound 11q]”, for which the “Human hepatocyte T 1/2” value in data set [4] turned out to be 82.2 min. In addition, the ERα eudismic ratio in data set [5] is below 0.3. Further, in data set [1], the ERβ/ERα ratio was above 169 and the pEC50 was 9.23. The ERβ eudismic ratio in data set [1] (ratio of activities of eutomer and distomer on ERβ) is 7.
